In patent US20080280877A1, “Azetidines” (Pfizer Inc, priority 2007, published 2008):
pKi: −log10 of the molar value.

Target: T1, recombinant human EP-2 receptor (Homo sapiens, UniProt P43116)
T1 construct: cell line stably transfected with full length cDNA encoding human Prostaglandin E2 was established; expressed in transfected cells; host or cells: CHO (Chinese hamster ovary) cells, stably transfected
Assay: in vitro antagonist potency against recombinant human EP-2 receptor in CHO cells (cAMP, Protocol 1)
Type: cell-based
Settings: functional Ki by Cheng-Prusoff from IC50; CHO cells stimulated with PGE2 (5 nM); cAMP readout; read-out: EP2 Ki
From the text: 1.0 Measurement of in vitro Antagonist Potency (IC50) of Compounds Against Recombinant Human Prostaglandin E2 Receptor in CHO Cells
The prostaglandin E2 (EP-2) receptor is Gs coupled and agonism of the receptor by PGE2 results in activation of intracellular adenylate cyclase enzymes that synthesise the second messenger signalling molecule, adenosine 3′,5′-cyclic monophosphate (cAMP). […] Decreases in cAMP levels following treatment of stimulated recombinant EP-2 cells with potential antagonist compounds were measured and potency (IC50) calculated as follows. A Chinese hamster ovary (CHO) cell line stably transfected with full length cDNA encoding human Prostaglandin E2 was established using standard molecular biology methods. Test compounds were dissolved in dimethyl sulphoxide (DMSO) at 4 mM. 11 point half log unit increment dilution series of test compound were prepared in DMSO then diluted 1 in 40 in a buffer comprised of phosphate buffered saline (PBS) and 0.05% pluronic F-127 surfactant. Freshly cultured cells at 80-90% confluence were harvested and re-suspended in 90% growth media/10% DMSO. The cells were frozen using a planar freezer and stored in frozen aliquots in cryovials in liquid nitrogen until the day of the experiment. A vial of cells was defrosted in a 37° C. water bath for 2 min, then transferred to 10 ml of Dulbecco's Modified Eagle's Medium (DMEM). The cells were then centrifuged for 5 min at 1000 g and the pellet re-suspended at 1,000,000 cells/ml in DMEM. 5,000 cells (5 ul) were added to 5 ul of the compound dilution series in a 384 well assay plate and pre-incubated for 30 min at 37° C. 5 ul of agonist (15 nM PGE2 in PBS to give 5 nM FAC) was added and plates further incubated for 90 min at 37° C. The relative cAMP concentration in each well was then measured using a ? -galactosidase enzyme fragment complementation method purchased in kit form as the Discoverx cAMP II kit from GE Healthcare, UK. […] Sigmoidal curves were fitted to plots of log10 inhibitor concentration vs. percent effect. IC50 estimates were determined as the concentration of test compound giving an effect half way between the bottom and top asymptotes of the sigmoidal dose response curve. Each experiment included an IC50 determination for the literature compound as a standard to track assay consistency and allow fair comparison between values obtained in different experiments. The EC50 of PGE2 is used in combination with the ligand concentration in the assay to determine Ki values for antagonist dose responses using the Cheng-Prusoff equation. Consequently an agonist dose response curve is carried out for each experiment using the same incubation as the antagonist plate.

T1 sequence (P43116 whole entry): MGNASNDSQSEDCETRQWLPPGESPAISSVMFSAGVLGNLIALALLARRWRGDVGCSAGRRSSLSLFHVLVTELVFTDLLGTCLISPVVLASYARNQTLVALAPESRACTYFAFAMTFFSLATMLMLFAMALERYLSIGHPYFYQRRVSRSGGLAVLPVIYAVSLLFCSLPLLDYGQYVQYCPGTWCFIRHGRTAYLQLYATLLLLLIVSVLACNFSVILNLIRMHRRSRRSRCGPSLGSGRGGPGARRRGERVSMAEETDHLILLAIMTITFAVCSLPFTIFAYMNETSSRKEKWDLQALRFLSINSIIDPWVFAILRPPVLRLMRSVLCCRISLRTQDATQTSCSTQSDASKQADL

pKi	SMILES
7.16	O=C(c1ccc(Cl)cc1)N1CC(COc2ccc(-c3ccccc3)nn2)(C(=O)O)C1 [Example 47]
6.52	O=C(c1ccc(F)cc1)N1CC(COc2cnc3ccccc3c2)(C(=O)O)C1 [Example 33]
7.61	COc1ccc2cc(OCC3(C(=O)O)CN(C(=O)c4ccccc4)C3)ccc2c1 [Example 20]
7.71	O=C(c1ccc(Cl)cc1)N1CC(COc2ccc(-c3ccccc3)cc2)(C(=O)O)C1 [Example 17]
6.94	O=C(c1ccccc1)N1CC(COc2ccc(-c3ccccc3)cn2)(C(=O)O)C1 [Example 49]
6.22	CSc1ccc(NC(=O)N2CC(COc3cccc(C)c3C)(C(=O)O)C2)cc1 [Example 68, 3-[(2,3-Dimethylphenoxy)methyl]-1-({[4-(methylthio)phenyl]amino}carbonyl)azetidine-3-carboxylic acid]
